Source: patent US20070037828A1, “Pyrazolopyrimidines” (priority 2003, published 2007)
Where two headings read alike, the source gives them in different places.

Assay: logP determination through HPLC (EEC directive 79/831 Annex V. A8)
Type: physicochemical
[1] = HPLC, gradient method, acetonitrile/0.1% aqueous phosphoric acid

Row | SMILES | logP [1] | logP | further results
1 | CC(Nc1c(-c2ccsc2)c(Cl)nc2c(C#N)cnn12)C(F)(F)F (stereo not shown) [Example 7] | 3.53 |  | 
2 | CC(C)Nc1c(-c2cc(Cl)sc2Cl)c(Cl)nc2c(C#N)cnn12 [Example 11] |  | 4.41 | 
3 | CCCN(CC1CC1)c1c(-c2cc(Cl)sc2Cl)c(Cl)nc2c(C#N)cnn12 [Example 20] |  | 5.78 | 
4 | N#Cc1cnn2c(N3CCOCC3)c(-c3cc(Cl)sc3Cl)c(Cl)nc12 [Example 28] |  | 3.85 | 
5 | N#Cc1cnn2c(O)c(-c3ncccc3C(F)(F)F)c(O)nc12 [Example 68, 3-cyano-6-(3-trifluoromethyl-pyridin-2-yl)-pyrazolo[1,5-a]pyrimidin-5,7-diol] |  |  | chromatographic logP [1]: 0.29
6 | CC(Nc1c(-c2ncncc2Cl)c(Cl)nc2c(C#N)cnn12)C(C)(C)C (stereo not shown) [Example 3] |  | 3.54 | 
7 | CC1CN(c2c(-c3cc(Cl)sc3Cl)c(Cl)nc3c(C#N)cnn23)CC(C)O1 (stereo not shown) [Example 27] |  | 4.72 | 
8 | C=Cc1cnn2c(N3CCC(C)CC3)c(-c3ncncc3Cl)c(Cl)nc12 [Example 75] |  |  | chromatographic logP [1]: 4.7
9 | CC(C)CN(C)c1c(-c2cc(Cl)sc2Cl)c(Cl)nc2c(C#N)cnn12 [Example 12] |  | 5.31 | 
10 | N#Cc1cnn2c(N3CCCCC3)c(-c3cc(Cl)sc3Cl)c(Cl)nc12 [Example 23] |  | 6.19 | 
11 | N#Cc1cnn2c(N3CCCC3)c(-c3cc(Cl)sc3Cl)c(Cl)nc12 [Example 21] |  | 4.61 | 
12 | CC(C)CC(C)Nc1c(-c2ccsc2)c(Cl)nc2c(C#N)cnn12 (stereo not shown) [Example 6] | 4.46 |  | 
13 | COCCN(C)c1c(-c2cc(Cl)sc2Cl)c(Cl)nc2c(C#N)cnn12 [Example 18] |  | 4.32 | 
14 | CC1CCN(c2c(-c3ncncc3Cl)c(Cl)nc3c(C=O)cnn23)CC1 [Example 74, 5-chloro-6-(5-chloro-pyrimidin-4-yl)-3-formyl-7-(4-methyl-piperidin-1-yl)-pyrazolo[1,5-a]-pyrimidine] |  |  | chromatographic logP [1]: 3.04
15 | CC(C)CNc1c(-c2cc(Cl)sc2Cl)c(Cl)nc2c(C#N)cnn12 [Example 9] |  | 4.82 | 
16 | N#Cc1cnn2c(NCC(F)(F)F)c(-c3ccsc3)c(Cl)nc12 [Example 8] | 3.21 |  | 
17 | CC(C)C(C)Nc1c(-c2cc(Cl)sc2Cl)c(Cl)nc2c(C#N)cnn12 (stereo not shown) [Example 24] |  | 5.19 | 
18 | COCCNc1c(-c2cc(Cl)sc2Cl)c(Cl)nc2c(C#N)cnn12 [Example 17] |  | 3.90 | 
19 | CC(C)CC(C)Nc1c(-c2cc(Cl)sc2Cl)c(Cl)nc2c(C#N)cnn12 (stereo not shown) [Example 29] |  | 5.59 | 
20 | CCC(C)Nc1c(-c2cc(Cl)sc2Cl)c(Cl)nc2c(C#N)cnn12 (stereo not shown) [Example 10] |  | 4.82 | 
21 | CN(CCC#N)c1c(-c2cc(Cl)sc2Cl)c(Cl)nc2c(C#N)cnn12 [Example 19] |  | 3.90 | 
22 | CC(C)(C)CNc1c(-c2cc(Cl)sc2Cl)c(Cl)nc2c(C#N)cnn12 [Example 15] |  | 5.31 | 
23 | CC(C)C(C)Nc1c(-c2ncncc2Cl)c(Cl)nc2c(C#N)cnn12 (stereo not shown) [Example 4] |  | 3.13 | 
24 | N#Cc1cnn2c(NCC(F)(F)F)c(-c3cc(Cl)sc3Cl)c(Cl)nc12 [Example 30] |  | 4.06 | 
25 | N#Cc1cnn2c(Cl)c(-c3ncccc3C(F)(F)F)c(Cl)nc12 [Example 65, 3-cyano-5,7-dichloro-6-(3-trifluoromethyl-pyridin-2-yl)-pyrazolo-[1,5-a]pyrimidine] |  |  | chromatographic logP [1]: 2.68
26 | N#Cc1cnn2c(NC3CCCC3)c(-c3cc(Cl)sc3Cl)c(Cl)nc12 [Example 16] | 5.03 |  | 
27 | CC(Nc1c(-c2ncncc2Cl)c(Cl)nc2c(Cl)cnn12)C(C)(C)C (stereo not shown) [Example 5] |  | 4.36 | 

Second part, led by results:

Row | logP [1] | logP | SMILES | further results
28 | 4.18 |  | CC(C)(C)CNc1c(-c2ccsc2)c(Cl)nc2c(C#N)cnn12 [Example 32] | 
29 |  | 4.46 | CC(Nc1c(-c2cc(Cl)sc2Cl)c(Cl)nc2c(C#N)cnn12)C(F)(F)F (single isomer, unassigned) [Example 31] | 
30 |  | 2.46 | CC(Nc1c(-c2ncncc2Cl)c(Cl)nc2c(C=O)cnn12)C(F)(F)F (single isomer, unassigned) [Example 55] | 
31 | 2.94 |  | COCCNc1c(-c2ccsc2)c(Cl)nc2c(C#N)cnn12 [Example 45] | 
32 | 4.27 |  | CC1CCCCN1c1c(-c2ccsc2)c(Cl)nc2c(C#N)cnn12 (stereo not shown) [Example 42] | 
33 | 4.08 |  | CC(C)C(C)Nc1c(-c2ccsc2)c(Cl)nc2c(C#N)cnn12 (stereo not shown) [Example 34] | 
34 |  | 3.29 | CC(Nc1c(-c2ncncc2F)c(Cl)nc2c(C#N)cnn12)C(C)(C)C (stereo not shown) [Example 56] | 
35 |  | 2.98 | CC(C)C(C)Nc1c(-c2ncncc2F)c(Cl)nc2ccnn12 (stereo not shown) [Example 61] | 
36 | 2.90 |  | N#Cc1cnn2c(N3CCOCC3)c(-c3ccsc3)c(Cl)nc12 [Example 44] | 
37 | 3.17 |  | COCCN(C)c1c(-c2ccsc2)c(Cl)nc2c(C#N)cnn12 [Example 51] | 
38 | 3.37 |  | CC(C)Nc1c(-c2ccsc2)c(Cl)nc2c(C#N)cnn12 [Example 39] | 
39 | 3.00 |  | N#Cc1cnn2c(NC3CCCC3)c(-c3ccsc3)c(Cl)nc12 [Example 33] | 
40 | 3.78 |  | CC(C)CNc1c(-c2ccsc2)c(Cl)nc2c(C#N)cnn12 [Example 37] | 
41 |  | 3.61 | N#Cc1cnn2c(N3CCC(F)(F)CC3)c(-c3ccsc3)c(Cl)nc12 [Example 36] | 
42 | 3.74 |  | CCC(C)Nc1c(-c2ccsc2)c(Cl)nc2c(C#N)cnn12 (stereo not shown) [Example 38] | 
43 |  | 2.65 | CC(Nc1c(-c2ncncc2F)c(Cl)nc2c(C#N)cnn12)C(F)(F)F (stereo not shown) [Example 58] | 

Row | logP [1] | logP | SMILES | further results
44 |  | 3.20 | CC1CCN(c2c(-c3ncncc3F)c(Cl)nc3c(C#N)cnn23)CC1 [Example 63] | 
45 |  | 2.44 | CC1CCCN1c1c(-c2ncncc2Cl)c(Cl)nc2c(C=O)cnn12 (stereo not shown) [Example 54] | 
46 | 4.13 |  | CC(C)CN(C)c1c(-c2ccsc2)c(Cl)nc2c(C#N)cnn12 [Example 40] | 
47 | 3.53 |  | N#Cc1cnn2c(N3CCCC3)c(-c3ccsc3)c(Cl)nc12 [Example 41] | 
48 |  | 2.92 | CC(C)C(C)Nc1c(-c2ncncc2F)c(Cl)nc2c(C#N)cnn12 (stereo not shown) [Example 57] | 
49 |  | 4.03 | N#Cc1cnn2c(N3CCC(C(F)(F)F)CC3)c(-c3ccsc3)c(Cl)nc12 [Example 53] | 
50 | 4.51 |  | CCCN(CC1CC1)c1c(-c2ccsc2)c(Cl)nc2c(C#N)cnn12 [Example 47] | 
51 | 2.98 |  | CCN(CCC#N)c1c(-c2ccsc2)c(Cl)nc2c(C#N)cnn12 [Example 52] | 
52 |  | 4.11 | CC(Nc1c(-c2ncncc2F)c(Cl)nc2c(Cl)cnn12)C(C)(C)C (stereo not shown) [Example 59] | 
53 |  | 3.12 | CC(Nc1c(-c2ncncc2Cl)c(Cl)nc2c(C=O)cnn12)C(C)(C)C (stereo not shown) [Example 62] | 
54 |  | 3.15 | COC(=O)c1cnn2c(NC(C)C(C)(C)C)c(-c3ncncc3F)c(Cl)nc12 (stereo not shown) [Example 64] | 
55 | 4.41 |  | CC1CCN(c2c(-c3ccsc3)c(Cl)nc3c(C#N)cnn23)CC1 [Example 43] | 
56 | 3.58 |  | N#Cc1cnn2c(N3CCCCC3)c(-c3ccsc3)c(Cl)nc12 [Example 49] | 
57 | 3.53 |  | CC1CN(c2c(-c3ccsc3)c(Cl)nc3c(C#N)cnn23)CC(C)O1 (stereo not shown) [Example 48] | 
58 |  | 3.42 | CC(Nc1c(-c2ncncc2F)c(Cl)nc2ccnn12)C(C)(C)C (stereo not shown) [Example 60] | 
